The results in this text go back to patent US20240261317A1, “METHODS OF TREATING MEDICAL CONDITIONS AND INHIBITING LINE1 REVERSE TRANSCRIPTASEUSING A SUBSTITUTED 4-FLUORO-2,5-DIHYDROFURANYL PHOSPHONIC ACID OR RELATED COMPOUND” (ROME Therapeutics, Inc., priority 2021, published 2024).

Data set [1] has as its target T1, LINE1 reverse transcriptase (Homo sapiens, UniProt O00370). The data set is described as follows: Transient artificial-intron Cis LINE1 reporter assay (FLuc/RLuc ratio). Format: cell-based. On the set-up: expressed in transfected cells. The settings on record: HEK 293 cells. On the procedure:
(§1) Intron-disrupted Firefly luciferase (FLuc) expression cassettes were generated as described by Xie, Y. et al. “Characterization of L1 retrotransposition with high-throughput dual-luciferase assays,” Nucleic Acid Res. (2011) Vol. 39, No. 3, e16. In addition, the plasmid contained an intact Renilla luciferase (RLuc) expression cassette on the vector backbone, in order to normalize transfection efficiency and measure potential cell toxicity.
(§2) HEK 293 cells were seeded in 96-well plates at 1,000 cells/well in 55 μL and grown for 24 hours. Cells were transfected with FuGeneHD (Promega) following the manufacturer's protocol. Each well received 0.133 ng plasmid, 0.4 μL FuGeneHD reagent, and 4.5 μL GlutaMAX-I-supplemented Opti-MEM I reduced-serum medium (Invitrogen). Cells were simultaneously treated with test compound serially diluted starting at 100 μM in a 3-fold dilution dose response.
(§3) Luminescence was measured using the Dual-Glo Luciferase Assay System (Promega) following the manufacturer's instructions. The ratio between FLuc and RLuc gene expression was used to report LINE1 activity.

Data set [2] concerns the target T1, LINE1 reverse transcriptase. As to the kind of experiment: Stable artificial-intron Cis LINE1 reporter assay in HeLa Tet-On 3G cells. Format: cell-based. On the set-up: expressed in transfected cells; host or cells: HeLa Tet-On 3G (Takara, cat no 631183). An excerpt: A stable HeLa Tet-On 3G (Takara, cat no 631183) cell line expressing a bi-directional inducible LINE1 construct was generated as described in Xie, Y. et al. “Cell division promotes efficient retrotransposition in a stable L1 reporter cell line,” Mobile DNA (2013) 4:10. Single cell clones were screened for high Luciferase expression and the highest expression Firefly expressing clone was chosen for compound testing.
Test compounds were serially diluted in DMSO and spotted in 96-well plates. Subsequently the HeLa L1 artificial-intron reporter cells were plated into the compound-containing wells (8,000 cells/well), and the cells were induced for reporter expression with doxycycline (Sigma cat no D9891) at a final concentration of 500 ng/mL. Luminescence was measured 72 h after plating using the Dual-Glo Luciferase Assay System (Promega cat no E2940) following the manufacturer's instructions. The Firefly Luciferase activity was used to report LINE1 activity.
(In general: In a reporter assay the amount or activity of a reporter protein is the signal.)

Data set [3] has as its target T2, recombinant MBP-tagged LINE1 protein (238-1061) (Homo sapiens, UniProt O00370).
T2 construct: recombinant MBP-tagged LINE1 protein (238-1061); made in house
As to the kind of experiment: Homogeneous time-resolved fluorescence (HTRF) LINE1 RT assay. The format is biochemical. The settings on record: tested as tri(ammonium) salt, read-out: IC50 for inhibition of LINE1 reverse transcriptase. On the procedure: The LINE1 reverse transcriptase homogeneous time-resolved fluorescence (HTRF) assay was performed with recombinant MBP-tagged LINE1 protein (238-1061) (generated and purified according to procedures in Dai L. et al. BMC Biochemistry 2011; 12:18) in a 384-well format. Test compound was serially diluted in DMSO and further diluted in the assay buffer (50 mM Tris-HCl, 50 mM KCl, 10 mM MgCl2, 10 mM DTT, pH 8.1) to achieve a final DMSO concentration of 1%. The serially diluted compound was mixed with 64 ng/well of LINE1 enzyme, 5 nM of pre-annealed template/biotin-primer pair (synthesized at Generay Biotechnology), 10 nM of Fluorescein-12-dATP fluorescent probe (Perkin Elmer), and 1 μM dGTP/dCTP/dTTP (Thermo Fisher Scientific) in the assay buffer. The template/biotin-primer sequences were as follows:
After incubating at 25° C. for 60 minutes, the detection reagent (20 mM EDTA with streptavidin-terbium cryptate, Cisbio Bioassay) in the PPI buffer (Cisbio Bioassay) was added, and the mixture was incubated at 25° C. for 30 minutes. At the end of the incubation, fluorescence was read at ex/em=337/485 nm and ex/em=337/520 nm on an Envision 2104 plate reader (Perkin Elmer). The fluorescence ratio at 520/485 nm was used for the calculation. […] The IC50 was calculated by fitting the compound dose inhibition curve with a 4-parameter non-linear regression equation.

The target in data set [4] is T3, HERV-K reverse transcriptase (2-596)-8His protein (Homo sapiens, UniProt V9H0F6).
T3 construct: fused on or other part: C-terminal 8His tag
The data set is described as follows: Homogeneous time-resolved fluorescence (HTRF) HERV-K RT assay. The format is biochemical. The settings on record: tested as tri(ammonium) salt, read-out: IC50 for inhibition of HERV-K reverse transcriptase. On the procedure:
The HERV-K reverse transcriptase homogeneous time-resolved fluorescence (HTRF) assay was performed in a 384-well format with HERV-K reverse transcriptase (2-596)-8His protein. Baculoviruses were created using Bac-to-Bac technology (Invitrogen). pFastBac donor plasmids containing HERV-K reverse transcriptase sequence (NCBI GenBank number AAC63291.1, J. Virology (1999) Vol. 73, No. 3, pp. 2365-2375) were transformed into DH10 Bac cells following the manufacturer's instructions. Recombinant bacmids were then isolated clonally and transfected into SF9 cells with lipofectin. HERV-K reverse transcriptase was expressed in the SF9 insect cells and then purified using immobilized metal affinity chromatography (IMAC) followed by size-exclusion chromatography (SEC). […]
After incubating at 25° C. for 30 minutes, the detection reagent 20 mM EDTA with streptavidin-terbium cryptate (Cisbio Bioassay) in the PPI buffer (Cisbio Bioassay) was added, and the mixture was incubated at 25° C. for 60 minutes. At the end of the incubation, fluorescence was read at ex/em=337/485 nm and ex/em=337/520 nm on an Envision 2104 plate reader (Perkin Elmer). The fluorescence ratio at 520/485 nm was used for the calculation. […] The IC50 was calculated by fitting the compound dose inhibition curve with a 4-parameter non-linear regression equation.
In general terms: Time-resolved FRET reads energy transfer from a long-lived donor to a nearby acceptor.

The test system of another data set is HEK 293 cells. As to the kind of experiment: Transient LINE1 reporter assay, Renilla luciferase (RLuc) control readout for potential cell toxicity. Format: cell-based. The settings on record: even at the highest dose tested (100 μM), FIG. 1. Here is the method: as §1, §2, §3
Where [5] appears, read: transient LINE1 reporter, Table 5 of Example 1, read-out: IC50.
[6] abbreviates: HeLa L1 artificial-intron reporter cells, doxycycline induced, 72 h, Firefly luciferase, read-out: IC50.

T3 sequence (V9H0F6 entry or part of it): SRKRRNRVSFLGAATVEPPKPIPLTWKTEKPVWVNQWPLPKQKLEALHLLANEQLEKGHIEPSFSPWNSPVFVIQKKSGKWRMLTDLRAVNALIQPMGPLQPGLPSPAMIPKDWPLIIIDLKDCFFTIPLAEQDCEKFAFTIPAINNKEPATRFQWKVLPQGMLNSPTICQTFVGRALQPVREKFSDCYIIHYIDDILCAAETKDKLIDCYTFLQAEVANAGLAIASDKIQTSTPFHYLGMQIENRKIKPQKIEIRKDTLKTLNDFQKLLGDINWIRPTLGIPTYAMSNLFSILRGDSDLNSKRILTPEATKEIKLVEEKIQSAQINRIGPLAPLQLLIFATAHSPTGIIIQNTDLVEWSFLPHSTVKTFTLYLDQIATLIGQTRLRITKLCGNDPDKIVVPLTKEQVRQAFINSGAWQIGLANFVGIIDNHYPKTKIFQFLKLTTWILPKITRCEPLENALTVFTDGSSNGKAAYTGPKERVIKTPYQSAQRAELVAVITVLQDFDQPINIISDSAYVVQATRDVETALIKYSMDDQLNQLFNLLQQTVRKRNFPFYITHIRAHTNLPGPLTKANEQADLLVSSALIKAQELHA

For `CCOC(=O)[C@H](C)N[P@](=O)(CO[C@@H]1C=C(F)[C@H](n2cnc3c(N)ncnc32)O1)Oc1ccccc1` [II-1, ethyl ((S)-((((2R,5R)-5-(6-amino-9H-purin-9-yl)-4-fluoro-2,5-dihydrofuran-2-yl)oxy)methyl)(phenoxy)phosphoryl)-L-alaninate], the IC50 in data set [1] (setting [5]) and in data set [2] (setting [6]) was less than 50 nM each time. For the compound `Nc1ncnc2c1ncn2[C@@H]1O[C@H](OCP(=O)(O)O)C=C1F` [III-1, Sodium ((((2R,5R)-5-(6-amino-9H-purin-9-yl)-4-fluoro-2,5-dihydrofuran-2-yl)oxy)methyl)phosphonate], in data set [2] (setting [6]), the IC50 is more than 500 nM. For `CCOC(=O)[C@H](C)N[P@@](=O)(CO[C@@H]1C=C(F)[C@H](n2cnc3c(N)ncnc32)O1)Oc1ccccc1` [II-2, ethyl ((R)-((((2R,5R)-5-(6-amino-9H-purin-9-yl)-4-fluoro-2,5-dihydrofuran-2-yl)oxy)methyl)(phenoxy)phosphoryl)-L-alaninate], the IC50 in data set [1] (setting [5]) and in data set [2] (setting [6]) was less than 50 nM in each case. As to `Nc1ncnc2c1ncn2[C@@H]1O[C@H](OCP(=O)(O)OP(=O)(O)OP(=O)(O)O)C=C1F` [IV-1], the IC50 is 100 nM in data set [3] and 120 nM in data set [4]. Consider `CCOC(=O)[C@H](C)NP(=O)(CO[C@@H]1C=C(F)[C@H](n2cnc3c(N)nc(F)nc32)O1)Oc1ccccc1` (stereo partly drawn) [Compound V-2, ethyl (2S)-2-[({[(2R,5R)-5-(6-amino-2-fluoropurin-9-yl)-4-fluoro-2,5-dihydrofuran-2-yl]oxy}methyl(phenoxy)phosphoryl)amino]propanoate], for which, in data set [2], the IC50 was more than 500 nM. Consider `Nc1nc(F)nc2c1ncn2[C@@H]1O[C@H](OCP(=O)(O)O)C=C1F` [Compound V-1, sodium ((((2R,5R)-5-(6-amino-2-fluoro-9H-purin-9-yl)-4-fluoro-2,5-dihydrofuran-2-yl)oxy)methyl)phosphonate], for which, in data set [2] (setting [6]), the IC50 was more than 500 nM.

On to `Nc1ncnc2c1ncn2[C@@H]1O[C@H](OCP(=O)(O)O)C=C1F` [Test Compound], for which the “impact on RLuc expression (Renilla)” value in the data set on HEK 293 cells is reported as “without any material impact”. The IC50 in data set [1] (transient transfection, FIG. 1, read-out: IC50 for inhibition of FLuc (FF/RR)) amounted to 1000 nM.
